Patent publication US20160298165A1 (priority 2013, published 2016)

Assays:
[1] = test system: M. tuberculosis Δsdh1 mutant; assay type: cell-based; settings: aerobic, at two and five days
[2] = test system: M. tuberculosis parental, sdh1 and sdh2 mutant strains
[3] = test system: INH-resistant M. tuberculosis strains (H37Rv inhA S94A, H37Rv PmabAinhA c-15t, H37Rv katG g371del); assay type: cell-based, Mycobacterium tuberculosis
[4] = test system: M. tuberculosis H37Rv rpoB H445R; assay type: cell-based, Mycobacterium tuberculosis
[5] = test system: M. tuberculosis H37Rv; assay type: cell-based, Mycobacterium tuberculosis
[6] = test system: M. tuberculosis Δsdh1 or Δsdh2 mutants; assay type: cell-based; settings: hypoxic conditions

## CC[C@@H](CO)NCCN[C@@H](CC)CO [EMB, Ethambutol, reference compound]
[1]
  clearing of the Δsdh1 mutant by single drugs vs parental: this was not true

## CN[C@@H]1[C@H](O[C@H]2[C@H](O[C@H]3[C@H](O)[C@@H](O)[C@H](N=C(N)N)[C@@H](O)[C@@H]3N=C(N)N)O[C@@H](C)[C@]2(O)C=O)O[C@@H](CO)[C@H](O)[C@H]1O [STR]
[1]
  clearing of the Δsdh1 mutant by single drugs vs parental: this was not true

## N#CC(C#N)=NNc1cccc(Cl)c1 [CCCP, carbonyl cyanide 3-chlorophenylhydrazone]
[2]
  time after which culture was unable to be rescued: 22 to 24 days
  viable cells at end of experiment: no viable cells remained
[2]; Mycobacterium tuberculosis
  parental inoculum remaining viable: 0.1%

## N[C@@H](CS)C(=O)O [cysteine]
[3]
  growth of INH-resistant strains: not impaired
[4]
  growth of H37Rv rpoB H445R: grew well
[5]
  Frequency of mutation for INH, Average: 7 × 10^−7
  Frequency of mutation for RIF: 2 × 10^−8
  Frequency of mutation for RIF, Average: 2 × 10^−8
  decrease in the frequency of spontaneous INH-resistant mutants: ≤ 10 fold
  decrease in the frequency of spontaneous RIF-resistant mutants: 3 fold

## NNC(=O)c1ccncc1 [INH, Isoniazid]
[3]
  growth of INH-resistant strains: not impaired
[1]
  clearing of the Δsdh1 mutant by single drugs vs parental: this was not true
[6]
  killing of Δsdh1 or Δsdh2 mutants compared to the parental strain: no effect

## CCc1cc(C(N)=S)ccn1 [ETH]
[1]
  clearing of the Δsdh1 mutant by single drugs vs parental: cleared more rapidly
